From ChEMBL document CHEMBL4385622, “Discovery of velpatasvir (GS-5816): A potent pan-genotypic HCV NS5A inhibitor in the single-tablet regimens Vosevi® and Epclusa®” (Bioorg Med Chem Lett, 2019)

Assays:
[1] = Fraction absorbed in rat; type: ADME; details: in vivo, read-out: Fabs
[2] = Fraction absorbed in cynomolgus monkey; type: ADME, Macaca fascicularis; details: in vivo, read-out: Fabs
[3] = Fraction absorbed in dog; type: ADME, Canis lupus familiaris; details: in vivo, read-out: Fabs
[4] = Half life in human at 100 mg, po; type: ADME; details: in vivo
[5] = Volume of distribution at steady state in rat at 2 mg/kg, iv; type: ADME, organism-based; details: in vivo, read-out: Vdss
[6] = Volume of distribution at steady state in dog at 0.25 mg/kg, iv; type: ADME, organism-based, Canis lupus familiaris; details: in vivo, read-out: Vdss
[7] = Volume of distribution at steady state in monkey at 0.5 mg/kg, iv; type: ADME, organism-based, Macaca mulatta; details: rhesus monkey, in vivo, read-out: Vdss
[8] = Oral bioavailability in dog at 0.5 mg/kg; type: ADME, organism-based, Canis lupus familiaris; details: in vivo
[9] = Cytotoxicity against human HepG2 cells infected with HCV genotype 1a H77 assessed as reduction in cell viability incubated for 5 days by CellTiter-Glo luminescent assay; type: cell-based
[10] = Cytotoxicity against human PC3 cells infected with HCV genotype 1a H77 assessed as reduction in cell viability incubated for 5 days by CellTiter-Glo luminescent assay; type: cell-based, PC-3
[11] = Cytotoxicity against human HuH7 cells infected with HCV genotype 1b Con-1 assessed as reduction in cell viability incubated for 5 days by CellTiter-Glo luminescent assay; type: cell-based, Huh-7
[12] = Half life in monkey at 0.5 mg/kg, iv; type: ADME, organism-based, Macaca mulatta; details: rhesus monkey, in vivo
[13] = Selectivity index, ratio of CC50 for human Huh7 cells infected with HCV genotype 1a H77 to EC50 for NS5A in HCV genotype 1a H77 infected in human HuH7 replicon cells; type: toxicity, cell-based; details: read-out: Ratio CC50/EC50
[14] = Half life in rat at 2 mg/kg, iv; type: ADME, organism-based; details: in vivo
[15] = Cytotoxicity against human HuH7 cells infected with HCV genotype 1a H77 assessed as reduction in cell viability incubated for 5 days by CellTiter-Glo luminescent assay; type: cell-based, Huh-7
[16] = Clearance in rat at 2 mg/kg, iv; type: ADME, organism-based; details: in vivo
[17] = Cytotoxicity against human MRC5 cells infected with HCV genotype 1b Con-1 assessed as reduction in cell viability incubated for 5 days by CellTiter-Glo luminescent assay; type: cell-based
[18] = Clearance in monkey at 0.5 mg/kg, iv; type: ADME, organism-based, Macaca mulatta; details: rhesus monkey, in vivo
[19] = Cytotoxicity against human MT4 cells infected with HCV genotype 1b Con-1 assessed as reduction in cell viability incubated for 5 days by CellTiter-Glo luminescent assay; type: cell-based
[20] = Cytotoxicity against human PC3 cells infected with HCV genotype 1b Con-1 assessed as reduction in cell viability incubated for 5 days by CellTiter-Glo luminescent assay; type: cell-based, PC-3
[21] = Clearance in dog at 0.25 mg/kg, iv; type: ADME, organism-based, Canis lupus familiaris; details: in vivo
[22] = Selectivity index, ratio of CC50 for human MT4 cells infected with HCV genotype 1a H77 to EC50 for NS5A in HCV genotype 1a H77 infected in human MT4 replicon cells; type: toxicity, cell-based; details: read-out: Ratio CC50/EC50
[23] = Unbound drug level in dog plasma; type: ADME, cell-free, Canis lupus familiaris
[24] = Unbound drug level in human plasma; type: ADME, cell-free
[25] = Oral bioavailability in monkey at 1 mg/kg; type: ADME, organism-based, Macaca mulatta; details: rhesus monkey, in vivo
[26] = Selectivity index, ratio of CC50 for human MRC5 cells infected with HCV genotype 1a H77 to EC50 for NS5A in HCV genotype 1a H77 infected in human MRC5 replicon cells; type: toxicity, cell-based; details: read-out: Ratio CC50/EC50
[27] = Cytotoxicity against human HepG2 cells infected with HCV genotype 1b Con-1 assessed as reduction in cell viability incubated for 5 days by CellTiter-Glo luminescent assay; type: cell-based
[28] = Unbound drug level in monkey plasma; type: ADME, cell-free, Macaca mulatta; details: rhesus monkey
[29] = Oral bioavailability in human at 100 mg; type: ADME, organism-based; details: in vivo
[30] = Unbound drug level in rat plasma; type: ADME, cell-free
[31] = Half life in dog at 0.25 mg/kg, iv; type: ADME, organism-based, Canis lupus familiaris; details: in vivo
[32] = Selectivity index, ratio of CC50 for human HepG2 cells infected with HCV genotype 1a H77 to EC50 for NS5A in HCV genotype 1a H77 infected in human HepG2 replicon cells; type: toxicity, cell-based; details: read-out: Ratio CC50/EC50
[33] = Cytotoxicity against human MRC5 cells infected with HCV genotype 1a H77 assessed as reduction in cell viability incubated for 5 days by CellTiter-Glo luminescent assay; type: cell-based
[34] = Selectivity index, ratio of CC50 for human PC3 cells infected with HCV genotype 1a H77 to EC50 for NS5A in HCV genotype 1a H77 infected in human PC3 replicon cells; type: toxicity, cell-based; details: read-out: Ratio CC50/EC50
[35] = Oral bioavailability in rat at 2 mg/kg; type: ADME, organism-based; details: in vivo
[36] = Cytotoxicity against human MT4 cells infected with HCV genotype 1a H77 assessed as reduction in cell viability incubated for 5 days by CellTiter-Glo luminescent assay; type: cell-based
[37] = target: T1, Nonstructural protein 5A (Hepatitis C virus) (UniProt Q5L478); test: Potency index, ratio of EC50 of ledipasvir to EC50 of test compound for inhibition of NS5A in HCV genotype 2b infected in human HuH7 replicon cells assessed as reduction in viral replication after 3 days by luciferase reporter gene assay; type: cell-based; details: Hepatitis C virus subtype 2b
T1 sequence (whole entry): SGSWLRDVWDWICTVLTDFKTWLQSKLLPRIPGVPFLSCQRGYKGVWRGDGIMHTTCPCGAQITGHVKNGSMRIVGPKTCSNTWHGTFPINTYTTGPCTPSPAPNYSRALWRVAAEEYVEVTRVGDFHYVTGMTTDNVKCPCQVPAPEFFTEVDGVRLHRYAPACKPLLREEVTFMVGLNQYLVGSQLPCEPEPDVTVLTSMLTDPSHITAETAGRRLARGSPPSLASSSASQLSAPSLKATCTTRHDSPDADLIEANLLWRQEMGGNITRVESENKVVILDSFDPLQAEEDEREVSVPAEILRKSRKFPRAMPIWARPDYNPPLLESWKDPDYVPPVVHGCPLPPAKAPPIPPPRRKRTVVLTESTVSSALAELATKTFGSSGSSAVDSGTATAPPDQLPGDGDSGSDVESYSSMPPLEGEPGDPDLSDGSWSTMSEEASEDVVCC

[38] = target: T1, Nonstructural protein 5A (Hepatitis C virus); test: Potency index, ratio of EC50 of ledipasvir to EC50 of test compound for inhibition of NS5A in HCV genotype 2a J6 infected in human HuH7 replicon cells assessed as reduction in viral replication after 3 days by luciferase reporter gene assay; type: cell-based; details: Hepatitis C virus subtype 2a
[39] = target: T1, Nonstructural protein 5A (Hepatitis C virus); test: Potency index, ratio of EC50 of ledipasvir to EC50 of test compound for inhibition of NS5A in HCV genotype 3a infected in human HuH7 replicon cells assessed as reduction in viral replication after 3 days by luciferase reporter gene assay; type: cell-based; details: Hepatitis C virus subtype 3a

## COC[C@H]1C[C@@H](c2nc3ccc4cc5c(cc4c3[nH]2)OCc2cc(-c3cnc([C@@H]4CC[C@H](C)N4C(=O)[C@@H](NC(=O)OC)C(C)C)[nH]3)ccc2-5)N(C(=O)[C@@H](NC(=O)OC)C(C)C)C1
[1]
  Fa: 13%
[2]
  Fa: 64%

## COC(=O)N[C@@H](C(=O)N1C[C@@H](C)C[C@H]1c1ncc(-c2cc3c4c(c2)OCc2cc(-c5cnc([C@@H]6C[C@H](C)CN6C(=O)[C@H](NC(=O)OC)c6ccccc6)[nH]5)cc(c2-4)OC3)[nH]1)c1ccccc1
[1]
  Fa: 2%
[3]
  Fa: 30%

## COC[C@H]1C[C@@H](c2nc3ccc4cc5c(cc4c3[nH]2)OCc2cc(-c3cnc([C@@H]4CCCN4C(=O)[C@@H](NC(=O)OC)C(C)C)[nH]3)ccc2-5)N(C(=O)[C@@H](NC(=O)OC)C(C)C)C1
[1]
  Fa: 16%
[3]
  Fa: 56%

## COC(=O)N[C@@H](C(=O)N1CCC[C@H]1c1ncc(-c2cc3c4c(c2)OCc2cc(-c5cnc([C@@H]6CCCN6C(=O)[C@H](NC(=O)OC)c6ccccc6)[nH]5)cc(c2-4)OC3)[nH]1)c1ccccc1
[1]
  Fa: 2%
[3]
  Fa: 34%
[2]
  Fa: 2%

## COC[C@H]1C[C@@H](c2ncc(-c3cc4c5c(c3)OCc3cc(-c6cnc([C@@H]7CC[C@H](C)N7C(=O)[C@@H](NC(=O)OC)C(C)C)[nH]6)cc(c3-5)OC4)[nH]2)N(C(=O)[C@H](NC(=O)OC)c2ccccc2)C1
[1]
  Fa: 29%
[2]
  Fa: 26%

## COC[C@H]1C[C@@H](c2ncc(-c3ccc4c(c3)COc3cc5c(ccc6nc([C@@H]7CC[C@H](C)N7C(=O)[C@@H](NC(=O)OC)C(C)C)[nH]c65)cc3-4)[nH]2)N(C(=O)[C@H](NC(=O)OC)c2ccccc2)C1 [VELPATASVIR]
[4]
  half-life: 15.7 h
[1]
  Fa: 36%
[3]
  Fa: 29%
[5]
  Vd: 1.61 L/kg
[6]
  Vd: 1.43 L/kg
[7]
  Vd: 1.6 L/kg
[8]
  bioavailability: 25%
[9]
  CC50 at 120 h: > 44.4 µM
[2]
  Fa: 37%
[10]
  CC50 at 120 h: > 44.4 µM
[11]
  CC50 at 120 h: > 44.4 µM
[12]
  half-life: 5.03 h
[13]
  selectivity ratio: > 4.9e+06
[14]
  half-life: 2.25 h
[15]
  CC50 at 120 h: > 44.4 µM
[16]
  clearance: 15.7 mL/min/kg
[17]
  CC50 at 120 h: > 44.4 µM
[18]
  clearance: 5 mL/min/kg
[19]
  CC50 at 120 h: > 44.4 µM
[20]
  CC50 at 120 h: > 44.4 µM
[21]
  clearance: 4.17 mL/min/kg
[22]
  selectivity ratio: > 4.9e+06
[23]
  Fu: 0.2%
[24]
  Fu: 0.3%
[25]
  bioavailability: 30%
[26]
  selectivity ratio: > 4.9e+06
[27]
  CC50 at 120 h: > 44.4 µM
[28]
  Fu: 0.4%
[29]
  bioavailability: 50%
[30]
  Fu: 0.2%
[31]
  half-life: 5.2 h
[32]
  selectivity ratio: > 4.9e+06
[33]
  CC50 at 120 h: > 44.4 µM
[34]
  selectivity ratio: > 4.9e+06
[35]
  bioavailability: 28%
[36]
  CC50 at 120 h: > 44.4 µM

## COC[C@H]1C[C@@H](c2ncc(-c3ccc4c(c3)COc3cc5c(ccc6nc([C@@H]7C[C@@H]8C[C@H]8N7C(=O)[C@@H](NC(=O)OC)C(C)C)[nH]c65)cc3-4)[nH]2)N(C(=O)[C@H](NC(=O)OC)c2ccccc2)C1
[1]
  Fa: 13%

## COC(=O)N[C@H](C(=O)N1CCC[C@H]1c1ncc(-c2ccc3c(c2)COc2c-3ccc3c2ccc2nc([C@@H]4CCCN4C(=O)[C@@H](NC(=O)OC)C(C)C)[nH]c23)[nH]1)C(C)C
[1]
  Fa: 31%
[3]
  Fa: 54%

## COC(=O)N[C@@H](C(=O)N1[C@@H](C)CC[C@H]1c1ncc(-c2cc3c4c(c2)OCc2cc(-c5cnc([C@@H]6CC[C@H](C)N6C(=O)[C@H](NC(=O)OC)c6ccccc6)[nH]5)cc(c2-4)OC3)[nH]1)c1ccccc1
[1]
  Fa: 3%
[3]
  Fa: 43%

## COC(=O)N[C@H](C(=O)N1CCC[C@H]1c1ncc(-c2cc3c4c(c2)COc2cc(-c5cnc([C@@H]6CCCN6C(=O)[C@@H](NC(=O)OC)C(C)C)[nH]5)cc(c2-4)OC3)[nH]1)C(C)C
[1]
  Fa: 18%
[3]
  Fa: 100%

## COC(=O)N[C@H](C(=O)N1CCC[C@H]1c1ncc(-c2cc3c4c(c2)OCc2cc(-c5cnc([C@@H]6CCCN6C(=O)[C@@H](NC(=O)OC)C(C)C)[nH]5)cc(c2-4)OC3)[nH]1)C(C)C
[37]
  Ratio EC50: 300
[1]
  Fa: 23%
[3]
  Fa: 70%
[38]
  Ratio EC50: 28
[39]
  Ratio EC50: 4800
[2]
  Fa: 15%
